Source: BindingDB's records for doi:10.1021/jm021012t (F. Hoffmann-La Roche, 2003)

Assays:
[1] = biological target: T1, P-glycoprotein (ABCB1, MDR1) (Homo sapiens, UniProt P08183); assay: Inhibition of P-glycoprotein, human L-MDR1 expressed in LLC-PK1 epithelial cells using calcein-AM polarisation assay; settings: LLC-PK1 epithelial cells expressing human MDR1 (L-MDR1), probe calcein-AM
[2] = biological target: T1, P-glycoprotein (ABCB1, MDR1); assay: TP_TRANSPORTER: inhibition of Calcein-AM efflux in MDR1-expressing LLC-PK1 cells; settings: probe calcein-AM

T1 sequence (P08183 whole entry): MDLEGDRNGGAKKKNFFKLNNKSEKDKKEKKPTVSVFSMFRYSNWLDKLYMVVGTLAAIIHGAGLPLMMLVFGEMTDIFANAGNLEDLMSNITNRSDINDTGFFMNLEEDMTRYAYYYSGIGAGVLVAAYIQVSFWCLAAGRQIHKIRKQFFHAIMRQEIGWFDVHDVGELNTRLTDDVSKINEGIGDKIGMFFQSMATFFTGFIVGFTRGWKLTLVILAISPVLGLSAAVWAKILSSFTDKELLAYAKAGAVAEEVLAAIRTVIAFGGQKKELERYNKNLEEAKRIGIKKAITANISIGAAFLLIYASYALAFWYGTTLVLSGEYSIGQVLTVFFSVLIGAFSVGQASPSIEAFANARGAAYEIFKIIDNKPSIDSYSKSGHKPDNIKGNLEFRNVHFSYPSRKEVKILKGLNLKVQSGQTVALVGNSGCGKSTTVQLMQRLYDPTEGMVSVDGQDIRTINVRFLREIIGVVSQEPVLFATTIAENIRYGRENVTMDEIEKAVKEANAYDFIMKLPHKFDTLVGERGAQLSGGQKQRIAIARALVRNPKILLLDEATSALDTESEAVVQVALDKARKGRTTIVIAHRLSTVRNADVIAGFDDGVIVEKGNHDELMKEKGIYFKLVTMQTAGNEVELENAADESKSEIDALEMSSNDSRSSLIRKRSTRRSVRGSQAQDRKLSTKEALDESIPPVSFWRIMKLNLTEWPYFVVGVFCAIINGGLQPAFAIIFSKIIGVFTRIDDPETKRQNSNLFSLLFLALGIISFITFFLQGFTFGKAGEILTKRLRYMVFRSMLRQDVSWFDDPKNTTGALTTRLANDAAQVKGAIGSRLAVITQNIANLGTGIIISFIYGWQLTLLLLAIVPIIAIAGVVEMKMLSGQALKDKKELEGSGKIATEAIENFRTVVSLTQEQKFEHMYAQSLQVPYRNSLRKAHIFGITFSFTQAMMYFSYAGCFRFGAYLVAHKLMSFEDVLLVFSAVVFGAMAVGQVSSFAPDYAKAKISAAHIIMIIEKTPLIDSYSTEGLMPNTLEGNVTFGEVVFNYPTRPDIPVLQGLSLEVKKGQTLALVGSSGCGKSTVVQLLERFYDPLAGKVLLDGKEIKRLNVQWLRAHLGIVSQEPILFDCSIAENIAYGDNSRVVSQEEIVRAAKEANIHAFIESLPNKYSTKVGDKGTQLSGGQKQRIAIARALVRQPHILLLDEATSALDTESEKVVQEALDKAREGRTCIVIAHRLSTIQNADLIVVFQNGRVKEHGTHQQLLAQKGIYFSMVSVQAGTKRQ

## CC[C@H](C)[C@H]1O[C@]2(CC[C@@H]1C)C[C@@H]1C[C@@H](C/C=C(\C)[C@@H](O[C@H]3C[C@H](OC)[C@@H](O[C@H]4C[C@H](OC)[C@@H](O)[C@H](C)O4)[C@H](C)O3)[C@@H](C)/C=C/C=C3\CO[C@@H]4[C@H](O)C(C)=C[C@@H](C(=O)O1)[C@]34O)O2 [ABAMECTIN]
[1]
  IC50: 100 nM
[2]
  IC50: 100 nM
